Consider eight molecules from patent publication US20230137956A1, “ALPHA SUBSTITUTED STAT INHIBITORS AND COMPOSITIONS THEREOF” (JANPIX LIMITED, priority 2020, published 2023).

One data set deals with glutathione (GSH). Put plainly: Reactivity Profiling with Glutathione (GSH). In kind it is in vitro ADME. To be noted: cell culture medium (IMDM, 10% FBS) with 5 mM glutathione, 25 μM inhibitor, IMDM with 10% FBS, 0.5% DMSO, 25° C., HPLC, read-out: T1/2-GSH. The protocol: In some embodiments, metabolic stability of the compounds is evaluated according to their reactivity profiles with GSH.
3.5 μL of 5 mM stocking solution of the inhibitors in DMSO was added to 697.5 μL of Iscove's Modified Dulbecco's Medium (IMDM) supplemented with 10% FBS and antibiotic antimycotic solution, with 5 mM glutathione to afford a final concentration of 25 μM inhibitor with 0.5% DMSO. The solution was then immediately placed in the sample tray at 25° C. Sample was analyzed at pre-defined intervals, typically every 1.5 hours, for up to four injections, by HPLC, included at time zero, without further pre-treatment. For each inhibitor, its peak is integrated at different time points and compared to the time zero injection in order to obtain a percentage remaining. Half-life is calculated according to a first order reaction kinetic taking into account those time points for which remaining percentage of inhibitor is above 40%, using the formula: t½=Ln(2)/k, where k is the slope of the linear plot of Ln[Inhibitor] vs time, according to the formula: Ln[A]=Ln[A]0−kt, where [A] is the value resulting from the integration at each time point, [A]0 the value at time zero, and t the time. For each inhibitor, both replicates are averaged and the resulting t½ reported. Selective reactivity against GSH in particular is confirmed by incubation of the inhibitor in the same solution without the presence of GSH, and single analysis after a time longer than the latest time point analyzed for the samples with GSH.

The next data set relates to MV4-11 cells. In words: MV4-11 Cell Cytotoxicity Assay. It is filed as cell-based, human. The settings on record: 72 h incubation, CellTiter-Blue, read-out: IC50-MV-4-11. As to the method:
In some embodiments, the potency of the STAT5 inhibitors are evaluated by an in vitro assay such as MV4-11 Cell Cytotoxicity Assay. MV4-11 cells were grown in Iscove's Modified Dulbecco's Medium (IMDM) supplemented with 10% fetal bovine serum (FBS). 10,000 cells were plated per well in 96-well flat-bottom sterile culture plates with low-evaporation lids. After 24 h, inhibitors and a vehicle control (0.5% DMSO) were added and the cells were incubated for 72 h at 37° C. in 5% CO2. Inhibitors were examined in triplicate at a maximal concentration of 50 μM, followed by 1:2 dilutions in subsequent wells (25, 12.5, 6.25, 3.125, 1.5625, 0.78125, 0.390625, 0.195313 and 0.097656 μM). After 72 h, the wells were treated with CellTiter-Blue® (20 μL/well), and the plates were incubated using standard cell culture conditions for 1 hour. Fluorescence was measured at 560/590 nm.
(In general: Alamar Blue is a resazurin reagent that responds to reducing activity.)

SMILES strings stand for the structures. Like-named read-outs stand apart in the source and are kept apart here.

Regarding `C[C@@H](C(=O)N(Cc1cc(C2CC2)cc(N2CCCC2)c1)c1ccc(C(=O)O)cc1C1CC1)N(Cc1ccc(F)cc1Cl)S(=O)(=O)c1c(F)c(F)c(F)c(F)c1F` [Compound 1008, (S)-4-(2-(N-(2-chloro-4-fluorobenzyl)-(2,3,4,5,6-pentafluorophenyl)sulfonamido)-N-(3-cyclopropyl-5-(pyrrolidin-1-yl)benzyl)propan-amido)-3-cyclopropylbenzoic acid], the half-life at 25 μM with glutathione (GSH) is 2.37 to 9.23 h.
As for `CC(C)[C@@H](C(=O)N(Cc1cc(C2CC2)cc(C(C)(C)C)c1)c1ccc(C(=O)O)c(O)c1)N(Cc1ccc(Cl)cc1)S(=O)(=O)c1c(F)c(F)c(F)c(F)c1F` [Compound 1003, (S)-4-(N-(3-(tert-butyl)-5-cyclopropylbenzyl)-2-(N-(4-chlorobenzyl)-(2,3,4,5,6-pentafluorophenyl)sulfonamido)-3-methylbutanamido)-2-hydroxybenzoic acid], in the data set with MV4-11 cells (Homo sapiens, MV4-11, 72 h), the IC50 (in general, the midpoint of a concentration-inhibition curve) lay in the range of 1e-05 to 5 µM.
For `C[C@@H](C(=O)N(Cc1cc(C2CC2)cc(C2CC2)c1)c1ccc(C(=O)O)cc1OC1CC1)N(Cc1ccc(F)cc1Cl)S(=O)(=O)c1c(F)c(F)c(F)c(F)c1F` [Compound 1006, (S)-4-(2-(N-(2-chloro-4-fluorobenzyl)-(2,3,4,5,6-pentafluorophenyl)sulfonamido)-N-(3,5-dicyclopropylbenzyl)propanamido)-3-cyclopropoxybenzoic acid], the half-life at 25 μM in the data set with glutathione (GSH) is 2.37 to 9.23 h.
Consider `CC(C)C[C@H](C(=O)N(Cc1cc(C2CC2)cc(C(C)(C)C)c1)c1ccc(C(=O)O)c(O)c1)N(Cc1ccc(Cl)cc1)S(=O)(=O)c1c(F)c(F)c(F)c(F)c1F` [Compound 1005, (R)-4-(N-(3-(tert-butyl)-5-cyclopropylbenzyl)-2-(N-(4-chlorobenzyl)-(2,3,4,5,6-pentafluorophenyl)sulfonamido)-4-methylpentanamido)-2-hydroxybenzoic acid], for which, in the data set on MV4-11 cells, the IC50 lay within 5 to 10 µM.
Same read-out and setting: as for `CC(C)C[C@H](C(=O)N(Cc1cc(C2CC2)cc(C(C)(C)C)c1)c1ccc(C(=O)O)c(O)c1)N(Cc1ccc(Cl)cc1)S(=O)(=O)c1c(F)c(F)c(F)c(F)c1F` [Compound 1001, (R)-4-(N-(3-(tert-butyl)-5-cyclopropylbenzyl)-2-(N-(4-chlorobenzyl)-(2,3,4,5,6-pentafluorophenyl)sulfonamido)-4-methylpentanamido)-2-hydroxybenzoic acid], the figure is 1e-05 to 5 µM.
For `C[C@@H](C(=O)N(Cc1cc(C2CC2)cc(C(C)(C)C)c1)c1ccc(C(=O)O)c(O)c1)N(Cc1ccc(Cl)cc1)S(=O)(=O)c1c(F)c(F)c(F)c(F)c1F` [Compound 1002, (S)-4-(N-(3-(tert-butyl)-5-cyclopropylbenzyl)-2-(N-(4-chlorobenzyl)-(2,3,4,5,6-pentafluorophenyl)sulfonamido)propanamido)-2-hydroxybenzoic acid], in the data set with MV4-11 cells (Homo sapiens, MV4-11, 72 h), the IC50 fell in the range of 1e-05 to 5 µM.
Same read-out and setting: as for `C[C@H](C(=O)N(Cc1cc(C2CC2)cc(C(C)(C)C)c1)c1ccc(C(=O)O)c(O)c1)N(Cc1ccc(Cl)cc1)S(=O)(=O)c1c(F)c(F)c(F)c(F)c1F` [Compound 1004, (R)-4-(N-(3-(tert-butyl)-5-cyclopropylbenzyl)-2-(N-(4-chlorobenzyl)-(2,3,4,5,6-pentafluorophenyl)sulfonamido)propanamido)-2-hydroxybenzoic acid], the figure is 5 to 10 µM.
Consider `C[C@H](C(=O)N(Cc1cc(C2CC2)cc(N2CCCC2)c1)c1ccc(C(=O)O)cc1C1CC1)N(Cc1ccc(F)cc1Cl)S(=O)(=O)c1c(F)c(F)c(F)c(F)c1F` [Compound 1009, (R)-4-(2-(N-(2-chloro-4-fluorobenzyl)-(2,3,4,5,6-pentafluorophenyl)sulfonamido)-N-(3-cyclopropyl-5-(pyrrolidin-l-yl)benzyl)propan-amido)-3-cyclopropylbenzoic acid], for which, in the data set with glutathione (GSH), the half-life at 25 μM lay within 9.23 to 1670 h.
